Patent publication US7485455B2, “Nucleic acid encoding sodium channel subunit” (Wisconsin Alumni Research Foundation, priority 2002, dated 2009)

System: untransfected HEK cells (endogenous currents)
Details: incubation with mexiletine 100 μM for 24 hours, n=10, not significantly increased

## Cc1cccc(C)c1OCC(C)N (stereo not shown) [mexiletine]
  endogenous current density: 1.1±0.4 pA/pF
